# How the values were obtained:
# osteoarthritis [1] = assay: Clinical trial of PMX53 in arthritic dogs; assay type: in vivo, dog
# Text: A single oral dose of the drug appears to be effective for at least 3-4 days, even in the most severe case. […] The individual cases are listed below.
# osteoarthritis [2] = assay: Clinical trial of PMX53 in arthritic dogs; assay type: in vivo, dog; conditions: dogs with osteoarthritis; sc injection
# induced osteoarthritis = assay: Induced osteoarthritis in dogs (cruciate ligament transection); assay type: in vivo, dog
# Experimental: Four healthy dogs were obtained from a group of pound dogs destined for euthanasia. The dogs were acclimatised to the experimental canine ward for 7 days before the experiment commenced. Dogs were housed individually and fed on a mixture of dry dog food, canned dog food and occasional raw bones. They were walked for 10 minutes twice daily throughout the trial. The dogs were of age and sex as follows:
# PMX53 was synthesised by the Institute of Molecular Bioscience at the University of Queensland. The drug was dissolved in 30% polyethylene glycol 400 (PEG 400) in normal saline. The solution was made to a concentration of 3 mg/ml. The placebo vehicle was 30% PEG 400 in saline. All treatments were sterilised by filtration and stored at 4° C. The dogs were given the drug or placebo at a dose rate of 1 ml/10 kg body weight. The treatments were assigned to the dogs in a random fashion. The drug containers were marked so that the attendants who scored the gait were unaware of the treatment given to each dog.
# The cruciate ligament of the left stifle (knee) joint was transected surgically by an experienced specialist surgeon. The incision in the skin was approximately 2 centimeters long. The dogs were given postoperative pain relief, including epidural analgesia and opioids. At 24 hours after the surgery all dogs were limping. No supplementary analgesic therapy was deemed necessary after day 1. All dogs tolerated the procedure very well.
# The drug was given as a subcutaneous injection (0.3 mg/kg) into the loose skin on the dorsum of the neck once daily. […] Dogs were assessed twice daily for lameness while they were walked. The scoring was done by at least two people.
# dermal Arthus reaction = assay: Reverse passive dermal Arthus reaction in the rat; assay type: in vivo; conditions: intravenous, oral and topical pretreatment
# [3] = test system: antigen-induced arthritis of the knee joint; assay: Rat monoarticular antigen-induced arthritis; assay type: in vivo
# Experimental: Female Wistar rats (150-250 g) were obtained from the Central Animal Breeding House, University of Queensland. […] Each rat received a subcutaneous injection of this suspension (0.5 mL) on days 1 and 7. On day 12-28, rats were separated into separate cages, and body weight and food and water intake monitored daily. Rats received either ordinary tap water or drinking water containing AcF-[OPdChaWR] (1). […] On day 14, rats were anaesthetised and their hind limbs shaven. […] Rats were euthanased on day 28, and whole blood collected into an Eppendorf tube and allowed to spontaneously clot on ice. Blood samples were centrifuges (11,000 rpm×3 min) and serum collected and stored at −20° C. until analysis of serum cytokines using an ELISA. Each knee capsule was lavaged with 100 μL saline, and the total cell count determined using a haemocytometer. In addition, an aliquot of the knee joint lavage fluid was dropped onto a glass slide, and allowed to air dry. Once dry, cells were stained with a differential stain (Diff Quick) and a differential cell count was performed using a 40× dry lens microscope. The remaining lavage fluids from each joint were stored at −20° C. until later analysis of intra-articular cytokine levels using an ELISA. Each knee joint was severed, trimmed leaving only the area of interest and the skin was split with a scalpel blade. Knee samples were stored in 10% buffered formalin for >10 d. Knees were then rinsed with distilled water and placed in a saturated solution of EDTA solution for 21 d for decalcification before being embedded in paraffin wax. Knee tissue samples were prepared using standard histological techniques as described in Example 1, and stained using an haematoxylin and eosin stain. Histological slides were analysed in a blind fashion. […] In no samples was there evidence of significant bone erosion. Samples were thawed on the day of ELISA analysis, and serum or intra-articular lavage fluid TNFα and IL-6 concentrations were determined from a standard curve, using an ELISA as described in Example 1.
# [4] = dogs, day 28, compared to arthritic controls, FIG. 7
compound,measurement,setting,value
"CC(=O)N[C@@H](Cc1ccccc1)C(=O)N[C@H]1CCCNC(=O)[C@H](CCCNC(=N)N)NC(=O)[C@H](Cc2c[nH]c3ccccc23)NC(=O)[C@@H](CC2CCCCC2)NC(=O)[C@@H]2CCCN2C1=O [PMX53, AcF-[OPdChaWR]]",joint pain on manipulation,osteoarthritis [1]; Case #1,no joint pain on manipulation
same,morning stiffness,osteoarthritis [1]; Case #1,no morning stiffness
same,range of joint movement,osteoarthritis [1]; Case #1,not improved
same,time to very noticeable improvement after injection,"osteoarthritis [1]; Case #1, 0.3 mg/kg subcutaneously",≤ 24 h
same,improvement after treatment,"osteoarthritis [1]; Case #1, 1 mg/kg oral once daily, then 0.3 mg/kg sc once daily",marked
same,side effects,"osteoarthritis [1]; Case #1, injections for 12 months",no apparent side effects
same,attitude (owner report),osteoarthritis [1]; Case #2,noticeable improvement in attitude
same,lameness,"osteoarthritis [1]; Case #2, 1 mg/kg orally 4 weeks, then 0.3 mg/kg sc once daily",did not improve
same,response to therapy,"osteoarthritis [1]; Case #3, 1 mg/kg per day orally, then 0.3 mg/kg sc as required, no NSAIDs",responded very well
same,side effects,"osteoarthritis [1]; Case #3, after 9 months of treatment",no side effects
same,control of clinical signs,"osteoarthritis [1]; Case #4 (rheumatoid arthritis), 0.3 mg/kg SC once a week alone",did not completely control the clinical signs
same,clinical result in combination with prednisolone,"osteoarthritis [1]; Case #4, PMX53 once a week with prednisolone 2.5 mg PO once every second day",excellent results
same,duration of effect of a single oral dose,"osteoarthritis [1]; dogs with osteoarthritis, oral",3 to 4 days
same,side effects,"osteoarthritis [1]; dogs, up to 12 months treatment",No side effects
same,duration of effects of one injection,osteoarthritis [2],last for weeks
same,cartilage erosion,"induced osteoarthritis; dog #2 (drug treated), also seen in placebo dog #4, day 28",mild cartilage erosion
same,time of treatment to improvement in the degree of lameness,"induced osteoarthritis; dogs n=2, 0.3 mg/kg sc once daily, placebo 10-13 days, FIG. 6b",4 to 6 days
same,clinical impression of ability to walk,"induced osteoarthritis; dogs, 0.3 mg/kg sc once daily",clearly improved the ability of the dogs to walk
same,gait at the end of the trial,"induced osteoarthritis; dogs, 0.3 mg/kg sc once daily, day 28",relatively sound
same,blood biochemistry and haematology,"induced osteoarthritis; dogs, before surgery and at day 28",No abnormalities were detected
same,fibrosis of the joint (histopathology),induced osteoarthritis; [4],reduced fibrosis
same,thickening of the synovial membrane (histopathology),induced osteoarthritis; [4],reduced thickening of the synovial membrane
same,discomfort when injected,"induced osteoarthritis; dogs, sc in 30% PEG 400 in saline, drug and placebo alike",mild discomfort
same,site of injection at post mortem,"induced osteoarthritis; dogs, sc, dorsum of the neck, day 28",no abnormalities
same,recovery from surgery,"induced osteoarthritis; dogs, versus placebo-treated dogs",recovered from surgery more rapidly
same,rise in circulating TNFα associated with a dermal Arthus reaction,"dermal Arthus reaction; rat serum, FIG. 2",inhibition of the rise in circulating TNFα
same,vascular leakage associated with a dermal Arthus reaction,"dermal Arthus reaction; rat, Evans blue absorbance at 650 nm, FIG. 1",inhibition of the vascular leakage
same,right knee joint IL-6 level in joint lavage,[3]; FIG. 5,inhibition
same,right knee joint TNFα level in joint lavage,[3]; FIG. 5,inhibition
same,arthritic right knee joint swelling,"[3]; given orally on Days -2 to +14, FIG. 4",inhibition of arthritic right knee joint swelling
